Measured values taken from PMC6127270 (Frontiers in Pharmacology, 2018).
Read-outs that look alike come from different tables or passages of the source.

How the values were obtained:
human MOR = biological target: T1, human MOR (Homo sapiens, UniProt P35372); assay: [35S]GTPγS binding, CHO-hMOR membranes; format: biochemical; settings: for [35S]GTPγS Binding MOR % stim.: relative to DAMGO
T1 construct: host or cells: CHO

human DOR = biological target: T2, human DOR (Homo sapiens, UniProt P41143); assay: [35S]GTPγS binding, CHO-hDOR membranes; format: biochemical; settings: for [35S]GTPγS Binding DOR % stim.: relative to DPDPE
T2 construct: host or cells: CHO

human KOR = biological target: T3, human KOR (Homo sapiens, UniProt P41145); assay: biochemical; format: biochemical
T3 construct: host or cells: CHO

[1] = tested on: guinea-pig ileum (GPI) myenteric plexus-longitudinal muscle preparation; set-up: method as in Lattanzi et al., 2005; settings: values marked c (footnote not given); ref Lattanzi et al., 2005; read-out: Bioassay IC50 GPI; cited from earlier work
[2] = tested on: mouse vas deferens (MVD) preparation; set-up: method as in Lattanzi et al., 2005; settings: values marked c (footnote not given); ref Lattanzi et al., 2005; read-out: Bioassay IC50 MVD; cited from earlier work
CD-1 mice [3] = settings: s.c., hot-plate, values marked c (footnote not given), ref Lattanzi et al., 2005; cited from earlier work
[4] = Charcoal meal test (gastrointestinal transit); settings: male, CD-1, mouse, in vivo, sc
CD-1 mice [5] = assay: Charcoal meal test (gastrointestinal transit); settings: mice; for Inhibition of gastrointestinal transit at highest tested dose: highest doses morphine 8000, 14-OMO 90, POMO […]
[6] = tested on: guinea-pig ileum (GPI) myenteric plexus-longitudinal muscle preparation; settings: for IC50: read-out: Bioassay IC50 GPI, inhibition of electrically evoked twitch
[7] = tested on: mouse vas deferens (MVD) preparation; settings: for IC50: read-out: Bioassay IC50 MVD, inhibition of electrically evoked twitch
MOR = biological target: T4, MOR (Rattus norvegicus, UniProt P33535); assay: Competition binding, [3H]DAMGO, rat brain membranes
T4 construct: Membranes were prepared from Sprague–Dawley rat brains or guinea-pig brains; from tissue; host or cells: Sprague-Dawley rat brain

DOR = biological target: T5, DOR (Rattus norvegicus, UniProt P33533); assay: Competition binding, [3H][Ile5,6]deltorphin II, rat brain membranes
T5 construct: Membranes were prepared from Sprague–Dawley rat brains or guinea-pig brains; from tissue; host or cells: Sprague-Dawley rat brain

KOR = biological target: T6, KOR (Cavia porcellus, UniProt P41144); assay: Competition binding, [3H]U69,593, guinea-pig brain membranes
T6 construct: Membranes were prepared from Sprague–Dawley rat brains or guinea-pig brains; from tissue; host or cells: guinea-pig brain

CD-1 mice [8] = assay: Hot-plate assay (acute thermal nociception); format: in vivo, mouse
[9] = tested on: guinea-pig ileum (GPI) myenteric plexus-longitudinal muscle preparation; assay: tissue or blood; settings: Cavia porcellus, read-out: Bioassay IC50 GPI
[10] = tested on: mouse vas deferens (MVD) preparation; assay: tissue or blood; settings: read-out: Bioassay IC50 MVD

CO[C@@]12CCC(=O)[C@@H]3Oc4c(O)ccc5c4[C@@]31CCN(C)[C@@H]2C5 [14-OMO, 14-O-methyloxymorphone, reference compound]
EC50 (human MOR): 1.62 ± 0.48 nM
[35S]GTPγS Binding MOR % stim. (human MOR): 97 ± 6%
EC50 (human DOR): 43.8 ± 11.7 nM
[35S]GTPγS Binding DOR % stim. (human DOR): 106 ± 1%
EC50 (human KOR): 144 ± 32 nM
[35S]GTPγS Binding KOR % stim. (human KOR): 65 ± 7%
IC50 [1]: 2 ± 0.3 nM
IC50 [2]: 30.5 ± 5.5 nM
Antinociceptive activity AD50 (95% CI) (CD-1 mice [3]): 53 (48–58)^c μg/kg
ED50 at 30 min [4]: 0.037 µmol/kg
Inhibition of gastrointestinal transit at highest tested dose (CD-1 mice [5]; charcoal test, s.c.): 90%

C[C@@H](NC(=O)[C@@H](N)Cc1ccc(O)cc1)C(=O)NCC(=O)N(C)[C@@H](Cc1ccccc1)C(=O)NCCO [DAMGO, [D-Ala^2,N-Me-Phe^4,Gly-ol^5]enkephalin, reference compound]
[35S]GTPγS Binding MOR % stim. (human MOR): 100%

CC(C)[C@H](NC(=O)[C@H](CC(=O)O)NC(=O)[C@H](Cc1ccccc1)NC(=O)[C@@H](C)NC(=O)[C@@H](N)Cc1ccc(O)cc1)C(=O)N[C@H](C(=O)NCC(N)=O)C(C)C [Deltorphin I, deltorphin I, reference compound]
IC50 [6]: 1240 ± 132 nM
IC50 [7]: 0.19 ± 0.03 nM

C[C@@H](NC(=O)[C@@H](N)Cc1ccc(O)cc1)C(=O)N[C@@H](Cc1ccccc1)C(=O)NCC(=O)N[C@@H](Cc1ccc(O)cc1)C(=O)N1CCC[C@H]1C(=O)N[C@@H](CO)C(N)=O [Dermorphin, reference compound]
IC50 [6]: 1.3 ± 0.27 nM
IC50 [7]: 18 ± 0.31 nM

CN1CC[C@]23c4c5ccc(O)c4O[C@H]2[C@@H](O)C=C[C@H]3[C@H]1C5 [Morphine, Morphine hydrocloride, reference compound]
Antinociceptive activity AD50 (95% CI) (CD-1 mice [3]): 6690 (4468–9348)^c μg/kg
ED50 at 30 min [4]: 3.8 µmol/kg
Inhibition of gastrointestinal transit at highest tested dose (CD-1 mice [5]; charcoal test, s.c.): completely abolishing transit

CN1CC[C@]23c4c5ccc(O)c4O[C@H]2C(=O)CC[C@@]3(OCCCc2ccccc2)[C@H]1C5 [POMO, 14-O-phenylpropyloxymorphone]
Ki (MOR): 0.073 ± 0.007 nM
Selectivity DOR/MOR (MOR; ratio of Ki values): 1.8
Selectivity KOR/MOR (MOR; ratio of Ki values): 4.1
Ki (DOR): 0.13 ± 0.02 nM
Ki (KOR): 0.3 ± 0.01 nM
EC50 (human MOR): 0.082 ± 0.017 nM
Agonist efficacy at MOR (human MOR; [35S]GTPγS binding): full efficacy
Fold increase in potency (EC50) than 14-OMO at MOR (human MOR; [35S]GTPγS binding): 20 fold
[35S]GTPγS Binding MOR % stim. (human MOR): 100 ± 8%
EC50 (human DOR): 0.28 ± 0.14 nM
Agonist efficacy at DOR (human DOR; [35S]GTPγS binding): full efficacy
Fold increase in potency (EC50) than 14-OMO at DOR (human DOR; [35S]GTPγS binding): 151 fold
[35S]GTPγS Binding DOR % stim. (human DOR): 91 ± 8%
Agonist efficacy at KOR (human KOR): partial agonism
EC50 (human KOR): 0.38 ± 0.13 nM
Fold increase in potency (EC50) than 14-OMO at KOR (human KOR): 411 fold
[35S]GTPγS Binding KOR % stim. (human KOR): 39 ± 5%
Antagonism of antinociception by naloxone (CD-1 mice [8]; POMO 2 nmol/kg s.c., 20 min, naloxone 1 mg/kg s.c., -10 min): significantly antagonized
Antagonism of antinociception by naltrindole (CD-1 mice [8]; POMO 2 nmol/kg s.c., 20 min, naltrindole 3 mg/kg s.c., -10 min): did not antagonize
Antagonism of antinociception by nor-BNI (CD-1 mice [8]; POMO 2 nmol/kg s.c., 20 min, nor-BNI 20 mg/kg s.c., -24 h): did not antagonize
Fold increased antinociceptive potency than 14-OMO (CD-1 mice [8]; hot-plate, mice, s.c.): over 70 fold
Fold increased antinociceptive potency than morphine (CD-1 mice [8]; hot-plate, mice, s.c.): > 9000 fold
Time of peak antinociceptive response (CD-1 mice [8]; hot-plate, mice, s.c.): 20 min
Fold increase in antinociceptive potency than oxymorphone (CD-1 mice [8]; hot-plate, mice, s.c., oxymorphone value from Dumitrascuta et al., 2017): > 1400 fold
AD50 hot-plate test (CD-1 mice [8]; mice, s.c.): 0.7 nmol/kg
Antinociceptive activity AD50 (95% CI) (CD-1 mice [8]; mice, s.c., hot-plate, at peak of action): 0.70 (0.63–0.77) μg/kg
Fold more potent than morphine as agonist in GPI [6]: over 250 fold
Fold more potent than 14-OMO as agonist in MVD [7]: 1000 fold
Fold more potent than morphine as agonist in MVD [7]: > 50,000 fold
IC50 [9]: 1.2 ± 0.21 nM
IC50 [10]: 0.03 ± 0.0013 nM
ED50 at 30 min [4]: 0.0017 µmol/kg
Inhibition of gastrointestinal transit compared with 14-OMO and morphine (CD-1 mice [5]; charcoal test): fourfold less inhibition
Inhibition of gastrointestinal transit at highest tested dose (CD-1 mice [5]; charcoal test, s.c.): 50%
Ratio ED50(constipation) vs. AD50(antinociception) (CD-1 mice [5]; s.c.): 2.43
